{
  "source": "patent US20100323031A1",
  "about": "“Synergistic combination to enhance blood glucose and insulin metabolism” (GLYKON TECHNOLOGIES GROUP, LLC, priority 2009, published 2010)",
  "key": {"[1]": {"tested_on": "streptozotocin (STZ)-induced diabetes", "test": "Pilot animal streptozotocin-induced diabetes trial, blood glucose by glucometer", "format": "in vivo, male Wistar albino rats", "conditions": "STD Herbal 250 mg/kg", "method": "The synergism of the formula is reflected in findings in an animal trial of induced diabetes treated with Metformin. To produce streptozotocin (STZ)-induced diabetes in experimental rats, male Wistar albino rats of 12 weeks age were allowed to fast 24 hrs prior to injection with freshly prepared STZ in citrate buffer […] (45 mg/kg, i.p). […] However, an additional arm of similarly-induced diabetic rats that were older and much sicker was added to test the herbal mixture prepared to produce the relative percentages of each ingredient as in Example 1 given above, here termed “STD Herbal.” After an overnight fast, the samples suspended in 5% gum acacia were fed by gastric intubations with a syringe. […] The blood glucose level was determined by using an electronic glucometer (Accu Check, Roche Diagnostic) and the results are tabulated in table 4. n=6 animals in each group. Parenthesis value indicate percentage reduction of blood sugar level; *P<0.01 compared with initial level of blood glucose (0 h) in the respective group. Data were analyzed by repeated measure ANOVA followed by Dunnett test."}, "Human - sedentary": {"tested_on": "Human - sedentary", "conditions": "3 grams HCA as the free acid equivalent; cited from earlier work"}, "Male Wistar rats": {"tested_on": "Male Wistar rats", "conditions": "equivalent to 2,170 mg HCA free acid; cited from earlier work"}, "[2]": {"tested_on": "Human morbidly obese diabetics", "conditions": "published literature, U.S. Pat. No. 6,207,714; cited from earlier work"}, "[3]": {"tested_on": "Aged diabetic obese Zucker rat", "conditions": "human-equivalent dose, 6:1 rat to human multiplier; cited from earlier work"}},
  "note": "Marks after values point to notes of the source that are not given here.",
  "data": [
    {"compound": "CN(C)C(=N)N=C(N)N", "note": "[Metformin]", "values": [
      {"measurement": "Blood glucose level, Initial (0 hr)", "setting": "[1]; 0 hr, before treatment, overnight fast, Metformin 150 mg/kg by gastric intubation, n=6, in mg/dL (unit assumed)", "result": "329.2 ± 5.25"},
      {"measurement": "percentage reduction of blood sugar level, +1 hr", "setting": "[1]; +1 hr vs initial (0 hr), Metformin 150 mg/kg", "result": "(17.49) %"},
      {"measurement": "Blood glucose level, Treatment +1 hr", "setting": "[1]; +1 hr, Metformin 150 mg/kg by gastric intubation, n=6, in mg/dL (unit assumed)", "result": "271.6 ± 4.0"},
      {"measurement": "percentage reduction of blood sugar level, +2 hr", "setting": "[1]; +2 hr vs initial (0 hr), Metformin 150 mg/kg", "result": "(34.87) %"},
      {"measurement": "Blood glucose level, Treatment +2 hr", "setting": "[1]; +2 hr, Metformin 150 mg/kg by gastric intubation, n=6, in mg/dL (unit assumed)", "result": "214.4 ± 3.17*"},
      {"measurement": "percentage reduction of blood sugar level, +3 hr", "setting": "[1]; +3 hr vs initial (0 hr), Metformin 150 mg/kg", "result": "(46.38) %"},
      {"measurement": "Blood glucose level, Treatment +3 hr", "setting": "[1]; +3 hr, Metformin 150 mg/kg by gastric intubation, n=6, in mg/dL (unit assumed)", "result": "176 ± 6.7*"},
      {"measurement": "percentage reduction of blood sugar level, +4 hr", "setting": "[1]; +4 hr vs initial (0 hr), Metformin 150 mg/kg", "result": "(53.52) %"},
      {"measurement": "Blood glucose level, Treatment +4 hr", "setting": "[1]; +4 hr, Metformin 150 mg/kg by gastric intubation, n=6, in mg/dL (unit assumed)", "result": "153 ± 3.31*"}
    ]},
    {"compound": "O=C([O-])C[C@@](O)(C(=O)[O-])[C@H](O)C(=O)[O-].O=C([O-])C[C@@](O)(C(=O)[O-])[C@H](O)C(=O)[O-].[Ca+2].[Ca+2].[Ca+2]", "note": "[calcium salt, calcium salt of (−)-hydroxycitric acid]", "values": [
      {"measurement": "efficacy in reducing blood glucose", "setting": "Human - sedentary", "result": "ineffective"}
    ]},
    {"compound": "potassium salt of (−)-hydroxycitric acid", "values": [
      {"measurement": "efficacy in reducing blood glucose at smaller dosage", "setting": "Male Wistar rats", "result": "ineffective"},
      {"measurement": "lowest dose of HCA as free acid equivalent found efficacious in reducing blood glucose", "setting": "[2]", "result": 3, "unit": "grams"}
    ]},
    {"compound": "potassium-calcium salt of (−)-hydroxycitric acid", "values": [
      {"measurement": "lowest stand-alone dose shown to be effective, as HCA free acid equivalent", "setting": "[3]", "result": "3,276 mg"}
    ]}
  ]
}
